In one assay the target is T1, yHst2 I117F mutant (Saccharomyces cerevisiae, UniProt P53686, I117F).
T1 construct: Point mutations in yHst2 (1-294) were generated from the pRSET-A plasmid; His6 (N); made in house
The experiment in a line: Kinetic assay, deacetylase fluorescent activity assay kit, I117F mutant. The class given is biochemical. From the text: (§1) Protein Preparation, Crystallization and Structure Determination.
(§2) Kinetic Assays. […] Data taken in triplicate were fitted to the equation l/v=(Km/Vmax)(1/[S])+1/Vmax, using a root mean least squares approach in the form of a double reciprocal Lineweaver-Burk plot where the x-intercept is equal to −l/Km. […] The slopes of the Dixon Plot were replotted versus 1/[NAD^+], and the slope of the corresponding line was set equal to Km/(Vmax*Ki), in order to calculate Ki.

The next assay has as its target T2, yHst2 I117V mutant (Saccharomyces cerevisiae, UniProt P53686, I117V).
T2 construct: Point mutations in yHst2 (1-294) were generated from the pRSET-A plasmid; His6 (N); made in house
The experiment in a line: Kinetic assay, deacetylase fluorescent activity assay kit, I117V mutant. The format is biochemical.
From the text: as §1, §2

The target in assay [1] is T3, Hst2 (Saccharomyces cerevisiae, UniProt P53686). Put plainly: Reversibility assay. The class given is biochemical. Particulars: preincubation at 10x IC50, 100-fold dilution.
Method: Reversibility Assay. Each of the inhibitor scaffolds identified in the HTS was tested to determine whether they were reversible, slowly reversible or irreversible inhibitors of Hst2. The reversibility of each compound was identified using the fluorigenic assay described herein.
To aid in the determination of the mechanism of inhibition for each newly identified inhibitor and to assay reversibly of inhibitor binding to the enzyme, it was tested whether or not inhibitor binding to the Sir2 enzyme was rapidly reversible, slowly reversible or irreversible. […] Then, the enzyme was diluted 100-fold into reaction wells with both substrates, and the amount of product formation over time was monitored (FIG. 2).
The target in the next assay is T4, human SIRT2 (Homo sapiens, UniProt Q8IXJ6).
T4 sequence (Q8IXJ6 1-352 isoform Q8IXJ6-2): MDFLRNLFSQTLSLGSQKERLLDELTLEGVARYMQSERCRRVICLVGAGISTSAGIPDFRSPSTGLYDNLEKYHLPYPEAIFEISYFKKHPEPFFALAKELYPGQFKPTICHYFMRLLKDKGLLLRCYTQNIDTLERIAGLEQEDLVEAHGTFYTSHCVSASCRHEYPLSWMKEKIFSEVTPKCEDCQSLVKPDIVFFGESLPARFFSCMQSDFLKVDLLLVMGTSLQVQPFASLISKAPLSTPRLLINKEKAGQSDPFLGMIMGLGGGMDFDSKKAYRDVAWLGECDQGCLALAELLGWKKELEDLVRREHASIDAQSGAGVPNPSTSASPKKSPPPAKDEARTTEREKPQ
The experiment in a line: Inhibition assay against human SIRT2 (fluorigenic). As to conditions: for inhibitory activity against human SIRT2 (in words): 50 or 100 μM compound.

A further assay has as its target T5, wild-type yHst2 (Saccharomyces cerevisiae, UniProt P53686).
T5 construct: The 64-residue C-terminal deletion construct of yHst2 (residues 1-294) and point mutants were purified; His6 (N); made in house
Put plainly: Kinetic assay, deacetylase fluorescent activity assay kit, wild-type enzyme. The format is biochemical. As to conditions: read-out: Km for NAD+.
From the text: as §2

The target of another assay is T6, yHst2 D118N mutant (Saccharomyces cerevisiae, UniProt P53686, D118N).
T6 construct: Point mutations in yHst2 (1-294) were generated from the pRSET-A plasmid; His6 (N); made in house
The experiment in a line: Kinetic assay, deacetylase fluorescent activity assay kit, D118N mutant. The format is biochemical.
From the text: as §1, §2

Assay [2] has as its target T3, Hst2. The experiment in a line: SAR analysis, fluorigenic assay at 50 and 500 μM. The class given is biochemical. As to conditions: relative to control. From the text: Structure Activity Relationship (SAR) Analysis.
The target of assay [3] is T3, Hst2. Put plainly: Competition assay (inhibition mode versus NAD+ and acetyl-lysine substrate). The format is biochemical. As to conditions: for Ki: read-out: Ki. On the procedure: Competition Assay. […] The fluorigenic assay described above was used with a fixed enzyme concentration of 1 μM. When competition with NAD^+ was being tested, the FLUOR DE LYS-SIRT1 deacetylase substrate was held at a constant concentration of 100 μM and the NAD^+ was titrated from ⅓-5× KmNAD+ (5-80 μM). […] The inhibitors were titrated from ˜½-several times their estimated Ki as indicated. The reaction time was 15 minutes, and each condition was tested in duplicate. The Km, kcat and kcat/Km values were determined by direct fit of the data in SIGMAPLOT (Systat Software, Point Richmond, Calif.) to the Michealis-Menten equation. The Ki and Kis (the slope and intercept inhibition constants, respectively) and the competition type were also determined by a direct fit in SIGMAPLOT to both partial and full competitive, noncompetitive, uncompetitive and mixed competition models. Best-fit models were determined by several statistical methods including R^2, AICs and Sy.x as well as empirical evaluation of α and β values.
To determine the mechanism of inhibition of the compounds identified by HTS and to gain insight as to where these compounds may bind to the enzyme, inhibition modes were determined by varying each of the substrates with the other maintained at a fixed, saturating concentration (Table 11).

The target in another assay is T7, human SIRT3 (Homo sapiens, UniProt Q9NTG7).
T7 sequence (Q9NTG7 1-399): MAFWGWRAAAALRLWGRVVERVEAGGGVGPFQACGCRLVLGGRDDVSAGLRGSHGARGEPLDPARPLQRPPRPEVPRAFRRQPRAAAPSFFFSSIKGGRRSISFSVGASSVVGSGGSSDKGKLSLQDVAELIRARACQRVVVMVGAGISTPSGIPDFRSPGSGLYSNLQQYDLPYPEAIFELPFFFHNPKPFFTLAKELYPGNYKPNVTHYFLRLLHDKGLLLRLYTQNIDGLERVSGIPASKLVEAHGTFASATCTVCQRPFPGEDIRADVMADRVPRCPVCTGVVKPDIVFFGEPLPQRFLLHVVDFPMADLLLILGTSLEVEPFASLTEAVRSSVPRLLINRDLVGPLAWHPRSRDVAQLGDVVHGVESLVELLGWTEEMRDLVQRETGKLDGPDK
The experiment in a line: Inhibition assay against human SIRT3 (fluorigenic).

The target in assay [4] is T3, Hst2. Put plainly: IC50 determination, fluorigenic deacetylase assay, Hst2.
Method: (§3) IC50 Determination. […] The dose-response curves were then fit to one-site competition or sigmoidal-dose response curves as appropriate in [sequence] PRISM (GraphPad Software, La Jolla, Calif.) and the IC50 was determined. Three independent IC50 measurements were performed for each compound and the average and standard deviation are reported.
(§4) The resulting deacetylase activity for the three experiments was averaged and reported as a percentage relative to control wells containing no inhibitor.
A further assay addresses T8, full-length human SIRT1 (Homo sapiens, UniProt Q96EB6).
T8 sequence (Q96EB6 1-747): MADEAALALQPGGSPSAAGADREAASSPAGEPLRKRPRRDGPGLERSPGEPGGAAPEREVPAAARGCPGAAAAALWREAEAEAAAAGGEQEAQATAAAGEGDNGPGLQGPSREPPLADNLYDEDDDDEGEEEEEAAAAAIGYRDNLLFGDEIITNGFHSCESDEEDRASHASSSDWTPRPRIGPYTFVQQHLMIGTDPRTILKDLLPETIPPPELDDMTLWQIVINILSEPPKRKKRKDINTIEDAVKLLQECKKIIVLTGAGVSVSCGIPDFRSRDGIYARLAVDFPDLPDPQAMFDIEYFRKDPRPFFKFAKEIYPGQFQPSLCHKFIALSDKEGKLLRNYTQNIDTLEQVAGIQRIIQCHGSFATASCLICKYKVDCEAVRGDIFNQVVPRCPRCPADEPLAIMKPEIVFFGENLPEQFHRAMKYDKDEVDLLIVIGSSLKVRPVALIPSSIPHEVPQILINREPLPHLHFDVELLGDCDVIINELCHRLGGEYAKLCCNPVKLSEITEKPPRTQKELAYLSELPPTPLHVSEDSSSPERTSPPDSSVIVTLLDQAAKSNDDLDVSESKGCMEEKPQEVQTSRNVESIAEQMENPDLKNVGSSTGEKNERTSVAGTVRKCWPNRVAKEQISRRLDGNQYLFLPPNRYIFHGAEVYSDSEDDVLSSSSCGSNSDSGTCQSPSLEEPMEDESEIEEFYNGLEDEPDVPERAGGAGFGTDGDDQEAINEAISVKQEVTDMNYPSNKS
The experiment in a line: IC50 determination, fluorigenic deacetylase assay, FL SIRT1. As to conditions: read-out: SIRT1 IC50; Table 5; 240 μM NAD+, 200 μM substrate, 1 μM FL SIRT1, 15 min.

For the next assay, the target named is Hst2 (1-294) (Saccharomyces cerevisiae, UniProt P53686). Put plainly: High throughput screen for Hst2 effectors in the presence of nicotinamide (fluorimetric). As to conditions: Table 3, activators, nicotinamide present.
The subject of the next assay is trypsin. Put plainly: Control for inhibition of the trypsin assay developer. The format is biochemical. From the text: These compounds were not pursued further.
Assay [5] has as its target T3, Hst2.
Method: as §3, §4
The mark [6] stands for this setting: read-out: percent of residual enzyme activity, SIRT2.
The mark [7] stands for this setting: substrate NAD+ varied, acetyl-lysine substrate 100 μM.
Where [8] appears, read: substrate acetyl-lysine varied, NAD+ 160 μM.
[9] abbreviates: read-out: percent of residual enzyme activity, SIRT3.
Setting [10] is: read-out: Hst2 IC50, Table 5, 160 μM NAD+, 100 μM substrate, 1 μM Hst2, 15 min.

“Also recorded” adds a separate entry of the source. Like-named read-outs stand apart in the source and are kept apart here.

T3 sequence (P53686 1-294): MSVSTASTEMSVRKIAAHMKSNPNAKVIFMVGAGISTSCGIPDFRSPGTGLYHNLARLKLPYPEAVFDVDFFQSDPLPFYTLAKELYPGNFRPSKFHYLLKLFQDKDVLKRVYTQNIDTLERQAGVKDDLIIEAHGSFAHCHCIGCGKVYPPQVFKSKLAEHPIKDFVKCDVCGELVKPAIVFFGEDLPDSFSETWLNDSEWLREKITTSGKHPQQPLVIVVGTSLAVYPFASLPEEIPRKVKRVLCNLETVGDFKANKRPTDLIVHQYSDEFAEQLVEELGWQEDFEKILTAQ
T1 sequence (P53686 1-294 I117F): as the sequence (P53686 1-294) above, with I117F counted along it
T2 sequence (P53686 1-294 I117V): as the sequence (P53686 1-294) above, with I117V counted along it
T6 sequence (P53686 1-294 D118N): as the sequence (P53686 1-294) above, with D118N counted along it
Chain of Hst2 (1-294) (P53686 1-294): as the sequence (P53686 1-294) above
T5 sequence (P53686 1-294): as above
Method for Hst2 (1-294): High Throughput Screening (HTS). A high throughput screening protocol based on the SIRT1 Fluorimetric Activity Assay/Drug Discovery Kit was developed (BIOMOL International, Inc., Plymouth Meeting, Pa.). […] One hundred nanoliters of either a DMSO control or a compound from the small molecule screening library was added to each well by pinning. […] After 45 minutes, each plate was read on a fluorescence plate reader at an excitation wavelength of 360 nm and an emission wavelength of 460 nm. […] The fluorescence signal from each well was normalized to the DMSO controls on each 384-well plate and compared to a DMSO control population based on the following equation:
where χ is the fluorescence signal of the well, μ is the mean of the control (DMSO) population and σ is the standard deviation of the control population. […]
Method for full-length human SIRT1: Cells were harvested and lysed by sonication in buffer containing 50 mM Tris, pH 7.5, 200 mM NaCl, 5 mM imidizole, 10 mM β-mercaptoethanol (BME) and 0.1 mg/mL PMSF. Soluble FL SIRT1 was purified by Ni-NTA (Qiagen, Valencia, Calif.) in a buffer containing 50 mM Tris, pH 7.5, 300 mM NaCl, 10 mM BME, 5% glycerol and 30-600 mM imidizole followed by SUPERDEX-200 gel filtration in buffer containing 50 mM Tris, pH 7.5, 150 mM NaCl, and 10 mM BME. FL SIRT1 eluted between the 670 kDa and 158 kDa globular protein standards. Since SIRT1 is known to aggregate after several days at 4° C., the protein was aliquoted and frozen at −80° C. for use in fluorigenic assays.
as §3
Method for human SIRT2: (§5) Human recombinant SIRT3 was purchased from Enzo Life Sciences.
(§6) Inhibition Assay Against Human SIRT2 and SIRT3. […] Two independent measurements were performed for each compound and the average and standard deviation are reported.
Method for human SIRT3: as §5, §6

For the compound `NC(=O)c1cccnc1` [Nicotinamide (1), Nicotinamide, reference compound], the “increase of Kii for nicotinamide over wild-type enzyme” value at yHst2 I117F mutant (I117F mutant versus wild-type) is on record as approximately 6 fold. Moreover, the “decrease of Kii for nicotinamide over wild-type enzyme” value on yHst2 I117V mutant (I117V mutant versus wild-type) was approximately 2.5 fold. The “slope of progress curve with respect to the enzyme control” value at Hst2 [1] is 30%. Also, the remaining activity at 100 µM at human SIRT2 (setting [6]) was 26 ± 1.4%.
In the case of `NC(=O)c1ccc[n+]([C@@H]2O[C@H](COP(=O)([O-])OP(=O)(O)OC[C@H]3O[C@@H](n4cnc5c(N)ncnc54)[C@H](O)[C@@H]3O)[C@@H](O)[C@H]2O)c1` [NAD^+], the Km on wild-type yHst2 is 16.1 µM; at yHst2 I117F mutant (I117F mutant, read-out: Km for NAD+), 25.8 µM; at yHst2 I117V mutant (I117V mutant, read-out: Km for NAD+) it was 25.5 µM; on yHst2 D118N mutant (D118N mutant, read-out: apparent Km for NAD+), 454 µM. On yHst2 I117F mutant (I117F mutant versus wild-type), the “increased Km for NAD+ compared to wild-type enzyme” value is “less than 2 fold”. Also, at yHst2 D118N mutant (D118N mutant versus wild-type), the “increase of Km for NAD+ over wild-type” value was “more than 28 fold”.
In the case of `CCc1ccc(OCCCC(=O)Oc2ccc3c(c2)oc(=O)c2ccccc23)cc1` [Compound 12a, 4-(4-Ethyl-phenoxy)-butyric acid 6-oxo-6H-benzo[c]chromen-3-yl ester], at Hst2 [2] (Table 8, 50 μM compound), the activity at 50 µM is less than 1%. Also, the activity at 500 µM on Hst2 [2] (Table 8, 500 μM compound, read-out: % Activity 500) is less than 1%. The catalytic constant (kcat) on Hst2 [3] (substrate NAD+ varied) was determined as 0.025 ± 0.005 s⁻¹; on Hst2 [3] (substrate acetyl-lysine varied) it was 0.0163 ± 0.00067 s⁻¹. Also, the “Inhibition Mechanism” value at Hst2 [3] (setting [7]) is listed as “fully non-competitive; also recorded: NC (full)”; on Hst2 [3] (setting [8]) it was “partial non-competitive”. The inhibition constant Ki was 1.2 ± 0.2 µM on Hst2 [3] (substrate NAD+ varied) and 6.3 ± 1.7 µM at Hst2 [3] (substrate acetyl-lysine varied). The “inhibitory activity against human SIRT2 (in words)” value at human SIRT2 was “potent inhibitor”. Also, the remaining activity at 50 µM came out at 2.4 ± 0.3% at human SIRT2 (setting [6]) and 89 ± 3.3% on human SIRT3 (setting [9]). Further, the “IC50 values (range in words)” value at Hst2 [4] (Table 5) is “low micromolar”. For the same compound, the half-inhibitory concentration (IC50) was found to be 6.5 ± 1.3 µM on Hst2 [4] (setting [10]) and 6 ± 0.4 µM on full-length human SIRT1.
`CC1(C)CC(=O)C2=C(C1)NC1=C(C(=O)CC(C)(C)C1)C2c1cccc(F)c1`: at Hst2 (1-294), the “Fold Activation” value is on record as 2.2 Fold.
As to “(Pyrido[2,3-a]5-nitropyrrolo[3,4-c]carbazole-5,7(6H)-dione) (cyclopentadienyl)monocarbonyl ruthenium [Compound 16b]”, the inhibition of trypsin result with trypsin is “did not inhibit trypsin”. Moreover, the IC50 against Hst2 [4] (Table 4, Hst2) stood at 24 ± 16 µM; on Hst2 [4] (setting [10]), 24 ± 16 µM. Moreover, the “IC50 values (range in words)” value against Hst2 [4] (Table 5) is listed as “low micromolar”.
As for “Pyrido[2,3-a]4-nitropyrrolo[3,4-c]carbazole-5,7(6H)-dione) (cyclopentadienyl) monocarbonyl ruthenium [Compound 16a]”, the inhibition of trypsin result in the assay with trypsin is “did not inhibit trypsin”. The IC50 against Hst2 [4] (Table 4, Hst2) worked out at 36 ± 12 µM; on Hst2 [4] (setting [10]) it was 36 ± 12 µM. Also, the “IC50 values (range in words)” value on Hst2 [4] (Table 5) was “low micromolar”.
Turning to `COCC#CC1c2cc(O)c(OC)cc2CCN1C` (stereo not drawn) [Compound 15a, 6-Methoxy-1-(3-methoxy-prop-1-ynyl)-2-methyl-1,2,3,4-tetrahydro-isoquinolin-7-ol], the activity at 500 µM at Hst2 [2] (Table 7, 500 μM compound, read-out: % Activity 500 μM) stood at 5%. The catalytic constant (kcat) at Hst2 [3] (substrate NAD+ varied) stood at 0.0137 ± 0.00233 s⁻¹; on Hst2 [3] (substrate acetyl-lysine varied), 0.0167 ± 0.0033 s⁻¹. Moreover, the “Inhibition Mechanism” value is listed as “fully mixed” on Hst2 [3] (setting [7]) and “fully non-competitive; also recorded: NC (full)” at Hst2 [3] (setting [8]). Moreover, on Hst2 [3] (with respect to NAD+), the “α (mixed inhibition model)” value is on record as 2.6. Further, the “IC50 lower than that of compound 15b” value against Hst2 [5] was “about 2 fold”. Further, the “inhibitory activity against human SIRT2 (in words)” value against human SIRT2 is listed as “only weak inhibitory activity”. In addition, the figures for the remaining activity at 100 µM on human SIRT2 (setting [6]) and at human SIRT3 (setting [9]) were 92.1 ± 1.5% and 96.4 ± 0.5%, respectively. Also, on human SIRT3 (50 or 100 μM compound), the “inhibitory activity against human SIRT3 (in words)” value is reported as “only weak inhibitory activity”. For the same compound, on full-length human SIRT1, the half-maximal inhibitory concentration (IC50) was 570 ± 200 µM.

In general, Km refers to the substrate concentration at which the rate is half of its maximum. What is called kcat is the maximal rate divided by the concentration of active sites. Usually Ki stands for the equilibrium dissociation constant of an inhibitor or competing ligand from its target. The term IC50 denotes the concentration that inhibits the measured activity by half.

The record behind these values is patent US20090326007A1, “Compounds and methods for modulating sir2 protein activity” (priority 2007, published 2009).
